Experimental data taken from patent publication US9290511B2, “Thieno-pyrimidines, useful as potassium channel inhibitors” (XENTION LIMITED, priority 2011, dated 2016).

What follows are molecules tested against T1, Kir3.1/3.4 (Rattus norvegicus, UniProt P48548+P63251) (assay: Kir3.1/3.4 Electrophysiology Method (manual whole-cell patch clamp)). Conditions: Electrophysiology Method (TABLE 1).
T1 construct: expressed in transfected cells
T1 sequence (P63251 1-501): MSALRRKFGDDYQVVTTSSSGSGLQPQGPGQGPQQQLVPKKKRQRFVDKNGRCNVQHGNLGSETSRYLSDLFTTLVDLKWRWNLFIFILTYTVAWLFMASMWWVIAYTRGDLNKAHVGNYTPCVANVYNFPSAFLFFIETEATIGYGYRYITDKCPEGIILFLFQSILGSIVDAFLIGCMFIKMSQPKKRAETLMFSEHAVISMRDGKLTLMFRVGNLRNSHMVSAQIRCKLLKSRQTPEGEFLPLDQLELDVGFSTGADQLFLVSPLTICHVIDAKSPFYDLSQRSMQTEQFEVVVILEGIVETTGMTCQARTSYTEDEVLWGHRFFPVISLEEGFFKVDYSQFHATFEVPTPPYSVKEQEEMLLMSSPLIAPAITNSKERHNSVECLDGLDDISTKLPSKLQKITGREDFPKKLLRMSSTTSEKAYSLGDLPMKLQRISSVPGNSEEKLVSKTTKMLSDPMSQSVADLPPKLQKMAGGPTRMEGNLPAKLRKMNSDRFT
T1 sequence (P48548 1-419): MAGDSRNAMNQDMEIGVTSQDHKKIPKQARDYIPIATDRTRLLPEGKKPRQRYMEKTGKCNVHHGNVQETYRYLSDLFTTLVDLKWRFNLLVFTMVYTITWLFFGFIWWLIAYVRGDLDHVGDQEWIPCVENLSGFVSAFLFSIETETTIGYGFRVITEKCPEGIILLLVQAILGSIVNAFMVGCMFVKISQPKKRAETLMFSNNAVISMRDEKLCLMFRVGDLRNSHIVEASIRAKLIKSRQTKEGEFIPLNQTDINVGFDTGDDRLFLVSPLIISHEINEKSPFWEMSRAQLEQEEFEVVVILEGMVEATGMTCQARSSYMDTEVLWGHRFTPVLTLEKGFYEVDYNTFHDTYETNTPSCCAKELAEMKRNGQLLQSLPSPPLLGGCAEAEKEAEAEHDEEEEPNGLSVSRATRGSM
Type: cell-based
Experimental: Compound activity against the recombinant G-protein activated inward rectifier current encoded by the heterotetramer Kir3.1/3.4 was assessed using manual whole-cell patch technique. The heterotetramer forms the pore-forming channel that conducts the acetylcholine/adenosine-activated potassium current in the heart.
For whole-cell patch-clamp studies, cells (Human Embryonic Kidney 293 stably transfected with rat Kir3.1/3.4) were seeded onto glass coverslips before recordings were made. Cells were seeded in sterile 30 mm Petri dishes at a density to enable isolated cells to be selected for patch clamp experiments. The dishes were stored in a humidified, gassed (5% CO2) incubator at 37° C. until use.
Whole-cell patch-clamp recordings of membrane currents were made following gigaohm seal formation between the patch electrode and the cell using HEKA EPC-9/10 amplifiers controlled by Pulse Software (Ver8.5x/8.6×/8.7×, HEKA, Germany). Coverslips seeded with cells were placed in a recording chamber mounted on the stage of an inverted microscope. During the experiment, the cell of interest was continuously superfused with bather solution delivered via a cannula placed in close proximity to the cell to enable control of the extracellular solution environment. Only those cells with a current <−500 pA (current at −140 mV) were used for experiments. During experiments, series resistance was compensated by a minimum of 70%.
Electrophysiology voltage-step protocols and analysis of data were performed as follows. Data was sampled at 5 kHz, and filtered with a −3 dB bandwidth of 2.5 kHz. Cells were held at a voltage of −60 mV. Currents were evoked by a depolarising voltage step to +60 mV (100 ms) before a ramp-repolarisation (0.4 V·s^−1) to −140 mV (100 ms) before returning to −60 mV. The command waveform was repeatedly applied every 10 s throughout the experiment. Mean currents during 1-99% of the time at −140 mV were analysed using Pulsefit software (v8.x, HEKA, Germany). The voltage protocol was repeatedly applied to achieve a stable current baseline in bather before the test substance was superfused via the cannula in close proximity to the cell under investigation. The test substance was allowed to equilibrate during which time voltage protocol was repeatedly applied and recorded. On reaching steady-state inhibition, the cell was superfused with an identical bather solution containing zero external potassium chloride (replaced by equimolar NaCl). The identical current measurement was made in the absence of potassium to assess the passive leak at −140 mV. The leak current was subtracted from the control and steady-state drug current values. The percentage inhibition of the leak-subtracted current in the presence of test substance was calculated relative to the control leak-subtracted pre-drug value. Internal patch-pipette solution contained in mM: 110 KCl, 20 NaCl, 0.9 GTPγS, 5 Mg-ATP, 5 EGTA, 10 HEPES, pH7.2 corrected with KOH. The external superfusate composition in mM was: 150 (or 160) NaCl, 10 (or 0) KCl, 3 CaCl2, 1 MgCl, 10 HEPES, pH 7.4 corrected with NaOH.

Molecule	IC50 [nM]
c1ccc(-c2csc3ncnc(N4CCC(CNCc5ccco5)CC4)c23)cc1 [Example 61, 1-(2-furyl)-N-[[1-(5-phenylthieno[2,3-d]pyrimidin-4-yl)-4-piperidyl]methyl]methanamine]	< 500
CN(C)[C@@H]1CCN(CC2CCN(c3ncnc4scc(-c5ccccc5)c34)CC2)C1 [Example 81, (3R)-N,N-dimethyl-1-[[1-(5-phenylthieno[2,3-d]pyrimidin-4-yl)-4-piperidyl]methyl]pyrrolidin-3-amine]	< 500
CC(C)N1CCCC1CCN(C)CC1CCN(c2ncnc3scc(-c4ccccc4)c23)CC1 (stereo not shown) [Example 88, 2-(1-isopropylpyrrolidin-2-yl)-N-methyl-N-[[1-(5-phenylthieno[2,3-d]pyrimidin-4-yl)-4-piperidyl]methyl]ethanamine]	< 500
CN(C)C(=O)c1ccccc1-c1csc2ncnc(N3C4CCC3CC(COCCN3CCCC3)C4)c12 (stereo not shown) [Example 364]	< 500
NCCNCC1CCN(c2ncnc3scc(-c4ccccc4)c23)CC1 [Example 63, N′-[[1-(5-phenylthieno[2,3-d]pyrimidin-4-yl)-4-piperidyl]methyl]ethane-1,2-diamine]	< 500
NC(=O)[C@H]1CCCN1CCN1CCN(c2ncc3c(-c4ccccc4)csc3n2)CC1 [Example 147]	< 500
c1ccc(-c2csc3ncnc(N4CCC(CNCc5cccs5)CC4)c23)cc1 [Example 69, N-[[1-(5-phenylthieno[2,3-d]pyrimidin-4-yl)-4-piperidyl]methyl]-1-(2-thienyl)methanamine]	< 500
COc1ccccc1-c1csc2ncnc(N3C4CCC3CC(CNC3CCC3)C4)c12 (stereo not shown) [Example 367]	< 500
CC(C)N(CCNCC1CCN(c2ncnc3scc(-c4ccccc4)c23)CC1)C(C)C [Example 62, N′,N′-diisopropyl-N-[[1-(5-phenylthieno[2,3-d]pyrimidin-4-yl)-4-piperidyl]methyl]ethane-1,2-diamine]	< 500
CC(C)NC(=O)c1sc2ncnc(N3CCC(COCCN4CCCC4)CC3)c2c1-c1ccccc1 [Example 139, N-isopropyl-5-phenyl-4-[4-(2-pyrrolidin-1-ylethoxymethyl)-1-piperidyl]thieno[2,3-d]pyrimidine-6-carboxamide]	< 500
OC1CCCN(CC2CCN(c3ncnc4scc(-c5ccccc5)c34)CC2)C1 (stereo not shown) [Example 55, 1-[[1-(5-phenylthieno[2,3-d]pyrimidin-4-yl)-4-piperidyl]methyl]piperidin-3-ol]	500 to 3000
8-azabicyclo[3.2.1]octan-3-amine [Example 325]	< 500
CNC(=O)c1sc2ncnc(N3CCC(COCCN4CCCC4)CC3)c2c1C(C)C [Example 134]	500 to 3000
COCCNc1nc(N2CCC(CNC3CCC3)CC2)c2c(-c3ccccc3)csc2n1 [Example 126]	< 500
c1ccc(-c2csc3ncnc(N4CCC(COC5CCOC5)CC4)c23)cc1 (stereo not shown) [Example 16, 5-phenyl-4-[4-(tetrahydrofuran-3-yloxymethyl)-1-piperidyl]thieno[2,3-d]pyrimidine]	500 to 3000
CN(CC(=O)N1CCCC1)CC1CCN(c2ncnc3scc(-c4ccccc4)c23)CC1 [Example 93, 2-[methyl-[[1-(5-phenylthieno[2,3-d]pyrimidin-4-yl)-4-piperidyl]methyl]amino]-1-pyrrolidin-1-yl-ethanone]	500 to 3000
CN1CCN(c2nc(N3CCC(CNC4(CO)CCCC4)CC3)c3c(-c4ccccc4)csc3n2)CC1 [Example 113]	500 to 3000
c1ccc(-c2csc3nc(N4CCC(COCCN5CCCC5)CC4)ncc23)cc1 [Example 148, 5-phenyl-2-[4-(2-pyrrolidin-1-ylethoxymethyl)-1-piperidyl]thieno[2,3-d]pyrimidine]	< 500
O=C1CN(c2nc(N3CCC(CNC4CCC4)CC3)c3c(-c4ccccc4)csc3n2)CCN1 [Example 125]	500 to 3000
COCC1CCN(c2nc(CCN3CCCC3)nc3scc(-c4ccc(F)cc4)c23)CC1 [Example 184, 5-(4-fluorophenyl)-4-[4-(methoxymethyl)-1-piperidyl]-2-(2-pyrrolidin-1-ylethyl)thieno[2,3-d]pyrimidine]	< 500
COc1ncccc1-c1csc2ncnc(N3C4CCC3CC(COCCN3CCCC3)C4)c12 (stereo not shown) [Example 363]	< 500

Second part, the molecule after the results:

IC50 [nM]	Molecule
< 500	CC(=O)NC1CCN(CC2CCN(c3ncnc4scc(-c5ccccc5)c34)CC2)C1 (stereo not shown) [Example 253]
< 500	CC(=O)NC1CCN(c2nc(N3CCC(CN(C)C4CCN(C)C4)CC3)c3c(-c4ccccc4)csc3n2)C1 (stereo not shown) [Example 226]
< 500	CC1CC(CNCCC2CCCN2C)CN1c1ncnc2scc(-c3ccccc3)c12 (stereo not shown) [Example 209]
< 500	CC(C)CC(=O)Nc1sc2nc(N3CCC(COCCN4CCCC4)CC3)ncc2c1-c1ccccc1 [Example 303]
500 to 3000	OCCN(CCO)CC1CCN(c2ncnc3scc(-c4ccccc4)c23)CC1 [Example 186]
< 500	CN(C)[C@@H]1CCCN(CC2CCN(c3ncnc4scc(-c5ccccc5)c34)CC2)C1 [Example 216]
< 500	NC(=O)C1CCN(c2nc(N3CCC(COCCN4CCCC4)CC3)c3c(-c4ccccc4)csc3n2)C1 (stereo not shown) [Example 256]
< 500	CN1CCCC1CCOCC1CCN(c2nc(N3CCC(C(N)=O)C3)nc3scc(-c4ccccc4)c23)CC1 (stereo not shown) [Example 255]
500 to 3000	CN(C)C1CCN(c2nc(NCCN3CCCC3)nc3scc(-c4ccccc4)c23)CC1 [Example 179]
< 500	c1ccc(-c2csc3ncnc(N4CCC(OCCCN5CCCC5)CC4)c23)cc1 [Example 296]
< 500	NC(=O)C1CCN(CCOCC2CCN(c3ncc4c(-c5ccccc5)csc4n3)CC2)C1 (stereo not shown) [Example 153]
< 500	COc1ccccc1-c1csc2ncnc(N3CCC(COCCN4CCCC4)CC3)c12 [Example 329]
< 500	CN(CC1CCN(c2ncnc3scc(-c4ccccc4)c23)CC1)C1CCC1 [Example 251]
< 500	OC1(CN2CCCC2)CCN(c2ncnc3scc(-c4ccccc4)c23)CC1 [Example 195]
500 to 3000	CN1CCCC1CCNC(=O)C1CCN(c2ncnc3scc(-c4ccccc4)c23)CC1 (stereo not shown) [Example 166, N-[2-(1-methylpyrrolidin-2-yl)ethyl]-1-(5-phenylthieno[2,3-d]pyrimidin-4-yl)piperidine-4-carboxamide]
< 500	NC(=O)[C@H]1CCCN1CCOC1CC2CC1CN2c1ncnc2scc(-c3ccccc3)c12 (stereo partly shown) [Example 293]
< 500	c1nc(N2CCC(COCCN3CCCC3)CC2)c2c(-c3ccc4c(c3)OCO4)csc2n1 [Example 319]
500 to 3000	CC(=O)Nc1sc2nc(N3CCC(COCCN4CCCC4)CC3)ncc2c1-c1ccccc1 [Example 155, N-[5-phenyl-2-[4-(2-pyrrolidin-1-ylethoxymethyl)-1-piperidyl]thieno[2,3-d]pyrimidin-6-yl]acetamide]
< 500	CC1CN(CC2CCN(c3ncnc4scc(C5CCCCC5)c34)CC2)CC(C)O1 (stereo not shown) [Example 197]
